Experimental data: patent publication US9884801B2, “Compounds from antrodia camphorata, method for preparing the same and use thereof” (ONENESS BIOTECH CO.,LTD., priority 2014, dated 2018)
Values after ≈ are worked out from the molar mass of the structure shown. Where two headings read alike, the source gives them in different places.

Tests used:
Type in all cases: cell-based
[1] = test system: LN-229 (Brain, Glioma); assay: SRB anti-proliferation assay, LN-229; settings: Homo sapiens; for IC50: LN-229, 48 hours
Protocol: (§1) Various cell lines (5×10^3 cells/well) were sub-cultured onto 96-well plates and starved with serum-free medium for 48 h. Then cells were incubated in medium with 10% FBS in the absence or presence of various concentrations of AC006, AC007, AC009, and AC012 (0.1, 0.3, 1, 3, 10, and 30 μg/ml) for 48 hours. After treatment, the medium was discarded firstly. […]. In order to fix the adherent cells, 100 μl of trichloroacetic acid (10% (w/v)) were adding to each well and incubating at 4° C. for 1 hour. Then the plates were then washed with deionized water and dried in the air. Each well were added with 50 μl of Sulforhodamine B (SRB) solution (0.4% w/v in 1% acetic acid) and incubated for 5 min at room temperature. To remove unbound SRB in the plates, the plates were washed with 1% acetic acid and then air dried. The residual bound SRB was solubilized with 100 μl of 10 mM Tris base buffer (pH 10.5), and then read using a micro titer plate reader at 495 nm.

[2] = test system: Huh-7 (Liver); assay: SRB anti-proliferation assay, Huh-7; settings: Homo sapiens; for IC50: Huh-7, 48 hours; for inhibition at 0.3 µg/mL: Huh-7, in 0.3 μg/ml
Protocol: as §1

[3] = test system: PC3 (Prostate); assay: SRB anti-proliferation assay, PC3; settings: PC3, 48 hours
Protocol: as §1

[4] = test system: A549 (Lung); assay: SRB anti-proliferation assay, A549; settings: Homo sapiens; for IC50: A549, 48 hours; for inhibition at 10 µg/mL: A549, in 10 μg/ml
Protocol: as §1

[5] = test system: B16F10 (Melanoma); assay: SRB anti-proliferation assay, B16F10; settings: Mus musculus, B16-F10; B16F10, 48 hours
Protocol: as §1

[6] = test system: DLD-1 (Colorectal); assay: SRB anti-proliferation assay, DLD-1; settings: for inhibition at 10 µg/mL: DLD-1, in 10 μg/ml
Protocol: as §1

[7] = test system: SW-480 (Colon rectal); assay: SRB anti-proliferation assay, SW-480; settings: for IC50: SW-480, 48 hours; for inhibition at 10 µg/mL: SW480, SW-480, in 10 μg/ml
Protocol: as §1

[8] = test system: 4T-1 (Breast); assay: SRB anti-proliferation assay, 4T-1; settings: 4T-1, 48 hours
Protocol: as §1

[9] = test system: RKO (Colorectal); assay: SRB anti-proliferation assay, RKO; settings: for inhibition at 10 µg/mL: in 10 μg/ml
Protocol: as §1

[10] = test system: HCT-116 (Colon rectal); assay: SRB anti-proliferation assay, HCT-116; settings: Homo sapiens; for IC50: HCT-116, 48 hours; for inhibition at 0.3 µg/mL: HCT-116, in 0.3 μg/ml
Protocol: as §1

[11] = test system: U87 (Brain, Glioma); assay: SRB anti-proliferation assay, U87; settings: for IC50: U87, 48 hours
Protocol: as §1

[12] = test system: U251 (Brain, Glioma); assay: SRB anti-proliferation assay, U251; settings: Homo sapiens, U-251; for IC50: U251, 48 hours
Protocol: as §1

[13] = test system: Sk-Hep-1 (Liver); assay: SRB anti-proliferation assay, Sk-Hep-1; settings: Homo sapiens, SK-HEP1; Sk-Hep-1, 48 hours
Protocol: as §1

[14] = test system: NST (Colon); assay: SRB anti-proliferation assay, NST
Protocol: as §1

[15] = test system: HT-29 (Colon); assay: SRB anti-proliferation assay, HT-29; settings: Homo sapiens; HT-29, 48 hours
Protocol: as §1

[16] = test system: COLO205 (Colon); assay: SRB anti-proliferation assay, COLO205; settings: Homo sapiens, COLO 205; COLO205, 48 hours
Protocol: as §1

[17] = test system: Endothelial progenitor cell (EPCs); assay: SRB assay, EPC cell proliferation; settings: 48 h, read-out: inhibitory concentrations of 50% EPC cell proliferation (IC50)
Protocol: as §1, with “Endothelial progenitor” for “Various”, “(EPCs, 5×10^3” for “lines (5×10^3”, “of” for “of AC006, AC007, AC009, and”, “10” for “10,”, “h.” for “hours. After treatment, the medium was discarded firstly.”

[18] = test system: EPCs in presence of VEGF; assay: Matrigel capillary tube formation assay; settings: 1 μg/ml, EPC, VEGF 20 ng/ml, 16 hr; read-out: inhibit tube formation
Protocol: Matrigel was added to 15-well-plates (ibidi) in a total volume of 10 μl in each well. Plates were stood at 37° C. for 30 min to form a gel layer. After gel formation, EPCs (5×10^3 cells) treated with or without AC012 (0.1, 0.3, 1 μg/ml) in presence of VEGF (20 ng/ml) were applied to each well, and plates were incubated for at 37° C. 16 hr with 5% CO2. After incubation, the inverted contrast phase microscope (Nikon, Japan) was used for subject observation.

[19] = Homo sapiens, DLD-1, 48 h, read-out: IC50
[20] = Homo sapiens, SW480, 48 h, read-out: IC50

SMILES	IC50 [1] [µg/mL]	IC50 [2] [µg/mL]	IC50 [3] [µg/mL]	IC50 [4] [µg/mL]	IC50 [5] [µg/mL]	IC50 [6, 19] [µg/mL]	inhibition at 10 µg/mL ([6]; Homo sapiens) [%]	IC50 [7, 20] [µg/mL]	inhibition at 10 µg/mL ([7]; Homo sapiens) [%]	IC50 ([9]; 48 h, read-out: IC50) [µg/mL]	inhibition at 10 µg/mL [9] [%]	IC50 [10] [µg/mL]	inhibition at 0.3 µg/mL [2] [%]	inhibition at 0.3 µg/mL [10] [%]	inhibition at 10 µg/mL [4] [%]	other results
COC1=C(OC)[C@H](OC(C)=O)[C@H](C/C=C(\C)CC/C=C(\C)C/C=C/C(C)(C)O)[C@@H](C)C1=O [AC007]	> 25	0.88 (≈ 1.96 µM)	22.1 (≈ 49.2 µM)	3.57 (≈ 7.96 µM)	23.4 (≈ 52.3 µM)	19.7 (≈ 44 µM)	25.6	> 10	21.5	17.6 (≈ 39.2 µM)	29.5	0.93 (≈ 2.07 µM)				inhibition at 25 µg/mL ([1]; LN-229, in 25 μg/ml): 19.1%; IC50 ([6]; DLD-1, 48 hours): > 10 µg/mL; IC50 [8]: 24.8 µg/mL (≈ 55.3 µM); IC50 ([9]; 48 hours): > 10 µg/mL
COC1=C(OC)[C@H](O)[C@H](C/C=C(\C)CC/C=C(\C)CCCC(C)CO)[C@@H](C)C1=O (some centres unmarked) [AC012-H1]		< 0.3		6.4 (≈ 15.7 µM)		> 10	11.8	> 10	14.8	> 10	17.5	< 0.3	91.2	52.7		
COC1=C(OC)[C@H](OC(C)=O)[C@H](C/C=C(\C)CC/C=C(\C)C[C@H](O)C=C(C)C)[C@@H](C)C1=O [AC006]	> 30	0.72 (≈ 1.6 µM)	19.7 (≈ 43.9 µM)	> 10	28.7 (≈ 64 µM)										12.2	inhibition at 30 µg/mL ([1]; LN-229, in 30 μg/ml): 22.6%; IC50 [11]: > 30 µg/mL; inhibition at 30 µg/mL ([11]; U87, in 30 μg/ml): 11.3%; IC50 [12]: > 30 µg/mL; inhibition at 30 µg/mL ([12]; U251, in 30 μg/ml): 22.6%; IC50 [13]: 26.8 µg/mL (≈ 59.7 µM)
COC1=C(OC)[C@H](OC(C)=O)[C@H](C/C=C(\C)CC/C=C(\C)C/C=C/C(C)(C)O)CC1=O [AC011]						> 10	7.57	> 10	31.6	> 10	24.1	2.43 (≈ 5.59 µM)				
COC1=C(OC)[C@H](OC(C)=O)[C@H](C/C=C(\C)CC/C=C(\C)CC/C=C(\C)CO)[C@@H](C)C1=O [AC009]	19.5 (≈ 43.5 µM)	< 0.3	15 (≈ 33.4 µM)	8.08 (≈ 18 µM)	22.4 (≈ 50 µM)	14.6 (≈ 32.6 µM)	8.75	18.6 (≈ 41.4 µM)	7.98	15.9 (≈ 35.5 µM)	33.2	2.56 (≈ 5.71 µM)	88.2			IC50 ([14]; 48 hours): > 25 µg/mL; inhibition at 25 µg/mL ([14]; in 25 μg/ml): 44.4%; IC50 ([6]; DLD-1, 48 hours): > 10 µg/mL; IC50 [7]: > 10 µg/mL; IC50 [15]: 33.2 µg/mL (≈ 74.1 µM); IC50 [16]: 2.45 µg/mL (≈ 5.46 µM); IC50 ([9]; 48 hours): > 10 µg/mL
COC1=C(OC)[C@H](O)[C@H](C/C=C(\C)CC/C=C(\C)CC/C=C(\C)CO)[C@@H](C)C1=O [AC009-H1]		< 0.3		> 10		> 10	11	> 10	4.01	> 10	8.79	< 0.3	90.6	54.4	40.8	
COC1=C(OC)[C@H](O)[C@H](C/C=C(\C)CC/C=C(\C)C/C=C/C(C)(C)O)[C@@H](C)C1=O [AC007-H1]		< 0.3		1.69 (≈ 4.16 µM)		> 10	16.1	> 10	18.2	> 10	33	< 0.3	85.2	59.5		
COC1=C(OC)[C@H](OC(C)=O)[C@H](C/C=C(\C)CC/C=C(\C)CCCC(C)CO)[C@@H](C)C1=O (some centres unmarked) [AC012]	19.4 (≈ 43.2 µM)	< 0.3	11.4 (≈ 25.2 µM)	> 10	9.16 (≈ 20.3 µM)	> 10	20.2	> 10	9.05	> 10	34.7	2.29 (≈ 5.08 µM)	78.9		49.5	IC50 [11]: 18.6 µg/mL (≈ 41.3 µM); IC50 [17]: 29 µg/mL (≈ 64.4 µM); inhibition at 1 µg/mL [18]: 31.9%; IC50 [12]: 22.7 µg/mL (≈ 50.4 µM); IC50 [13]: 8.27 µg/mL (≈ 18.4 µM)
COC1C(=O)C(C)[C@@H](C/C=C(\C)CC/C=C(\C)CCCC(C)CO)[C@@H](O)C1(OC)OC (some centres unmarked) [AC012-H2]						> 10	8.31	> 10	5.66	> 10	31.6	> 10				inhibition at 10 µg/mL ([10]; HCT-116, in 10 μg/ml): 40.3%
